Laboratory results as given in patent publication US20190374627A1, “TARGET PEPTIDES FOR CANCER THERAPY AND DIAGNOSTICS” (priority 2016, published 2019).
Square brackets hold non-standard residues; d marks the D form. Ends that are not written are not given here. pT = C[C@@H](OP(=O)(O)O)[C@H](N)C(=O)O

Experiments:
[1] = tested on: expanded lymphocyte cultures from deceased donor livers, cirrhotic livers and HCC; test: ICS for MHC-I-pP reactivity of liver-derived lymphocyte cultures after phosphopeptide-specific expansion; assay type: cell-based, human
[2] = tested on: unexpanded lymphocyte cultures (CD8^+ T cells); test: ICS for MHC-I-pP reactivity of lymphocyte cultures without expansion (Table 23, No Expansion); conditions: HH6
CD8^+ T cells (PBMCs) = test: Intracellular cytokine staining (ICS) of PBMCs after 7 days of stimulation with MHC-I-pP (healthy donors, HH patients); assay type: cell-based, human
How it was run: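 PBMCs or liver lymphocytes from HLA-A*0201-positive healthy donors and hereditary hemochromatosis patients were stimulated for 7 days with HLA-A*0201-restricted phosphopeptides and no added cytokines. After exclusion of doublets and dead cells with a fixable viability dye, CD3^+CD8^+ cells were analysed by intracellular staining for IFN-γ and TNF-α, plus CD107a where needed.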

[3] = tested on: expanded TIL / IHL cultures; test: ICS for MHC-I-pP reactivity of liver-derived lymphocyte cultures after unspecific rapid expansion protocol (REP); assay type: cell-based, human

FLDtPIAKV: NKD1 phosphopeptide, HLA-A*0201 (FLD[pT]PIAKV; listed as Homo sapiens)
1 (0.25-2.5% reactive CD8^-+ T cells): Reactive CD8^+ T cells, Non-specific Expansion, Do2 ([3]; Do2)
0 (<0.25% reactive CD8^-+ T cells): Reactive CD8^+ T cells, pP-specific Expansion, Do2 ([1]; pP-specific Expansion, Do2) | Reactive CD8^+ T cells, pP-specific Expansion, Do4 ([1]; pP-specific Expansion, Do4) | Reactive CD8^+ T cells, No Expansion, HH6 [2] | Reactive CD8^+ T cell population, HH2 (CD8^+ T cells (PBMCs); HH patient HH2) | Reactive CD8^+ T cell population, HH3 (CD8^+ T cells (PBMCs); HH patient HH3) | Reactive CD8^+ T cell population, HH6 (CD8^+ T cells (PBMCs); HH patient HH6) | Reactive CD8^+ T cell population, HH8 (CD8^+ T cells (PBMCs); HH patient HH8) | Reactive CD8^+ T cell population, HH11 (CD8^+ T cells (PBMCs); HH patient HH11) | Reactive CD8^+ T cell population, HD1 (CD8^+ T cells (PBMCs); Healthy donor HD1) | Reactive CD8^+ T cell population, HD4 (CD8^+ T cells (PBMCs); Healthy donor HD4) | Reactive CD8^+ T cell population, HD5 (CD8^+ T cells (PBMCs); Healthy donor HD5) | Reactive CD8^+ T cells, Non-specific Expansion, Do4 ([3]; Do4) | Reactive CD8^+ T cells, Non-specific Expansion, HH6 ([3]; HH6)
2 (2.5-5.0% reactive CD8^-+ T cells): Reactive CD8^+ T cells, pP-specific Expansion, HH6 ([1]; pP-specific Expansion, HH6)
0 (<0.25% reactive CD8-+ T cells): ppCTL response, Deceased Donor Liver Do 2 ([1]; pP-specifically expanded culture, Deceased Donor Liver Do 2) | ppCTL response, Deceased Donor Liver Do 3 ([1]; pP-specifically expanded culture, Deceased Donor Liver Do 3) | ppCTL response, Deceased Donor Liver Do 4 ([1]; pP-specifically expanded culture, Deceased Donor Liver Do 4) | ppCTL response, Deceased Donor Liver Do 6 ([1]; pP-specifically expanded culture, Deceased Donor Liver Do 6) | ppCTL response, End-stage Liver Cirrhosis IHL 11 ([1]; pP-specifically expanded culture, End-stage Liver Cirrhosis IHL 11) | ppCTL response, End-stage Liver Cirrhosis IHL 12 ([1]; pP-specifically expanded culture, End-stage Liver Cirrhosis IHL 12) | ppCTL response, End-stage Liver Cirrhosis IHL 13 ([1]; pP-specifically expanded culture, End-stage Liver Cirrhosis IHL 13) | ppCTL response, End-stage Liver Cirrhosis IHL 15 ([1]; pP-specifically expanded culture, End-stage Liver Cirrhosis IHL 15) | ppCTL response, HCC Distal HCC 1 ([1]; pP-specifically expanded culture, HCC 1 Distal) | ppCTL response, HCC Tumor HCC 1 ([1]; pP-specifically expanded culture, HCC 1 Tumor) | ppCTL response, HCC Distal HCC 4 ([1]; pP-specifically expanded culture, HCC 4 Distal) | ppCTL response, HCC Distal HCC 9 ([1]; pP-specifically expanded culture, HCC 9 Distal) | ppCTL response, HCC Tumor HCC 9 ([1]; pP-specifically expanded culture, HCC 9 Tumor) | ppCTL response, HCC Distal HCC 12 ([1]; pP-specifically expanded culture, HCC 12 Distal)
